Laboratory results as given in patent US20120004166A1, “ARYLOXYALKYLENE-SUBSTITUTED HYDROXYPHENYLHEXYNOIC ACIDS, PROCESS FOR PREPARATION THEREOF AND USE THEREOF AS A MEDICAMENT” (SANOFI, priority 2010, published 2012).

target: T1, GPCR GPR40 (Rattus norvegicus, UniProt Q8K3T4); assay: In vitro FLIPR assay with recombinant cells which express the GPCR GPR40; type: cell-based; details: recombinant HEK293 cells expressing rat GPR40; agonist-induced change in intracellular Ca2+ (Fluo-4, FLIPR); 100% = 10 μM linoleic acid
T1 construct: expressed in transfected cells; host or cells: HEK293
Method: In Vitro FLIPR Assay with Recombinant Cells which Express the GPCR GPR40
Function-testing assays were performed by means of the FLIPR technique (“Fluorescence Imaging Plate Reader”, Molecular Devices Corp.). To this end, agonist-induced changes in the intracellular concentration of Ca^2+ were determined in recombinant HEK293 cells which expressed the GPCR GPR40 (species: rat). For the studies, cells were sown into 96-well microtiter plates (60 000 cells/well) and left to grow overnight. The medium was removed and the cells were incubated in buffer which contained the fluorescent dye Fluo-4. After this loading with dye, the cells were washed, test substance was added and changes in the intracellular Ca^2+ concentration were measured in the FLIPR unit. Results were presented as the percentage change relative to the control (0%: no test substance added; 100%: 10 μM reference agonist linoleic acid added) and used to calculate dose/effect curves, and EC50 values were determined.

T1 sequence (Q8K3T4 whole entry): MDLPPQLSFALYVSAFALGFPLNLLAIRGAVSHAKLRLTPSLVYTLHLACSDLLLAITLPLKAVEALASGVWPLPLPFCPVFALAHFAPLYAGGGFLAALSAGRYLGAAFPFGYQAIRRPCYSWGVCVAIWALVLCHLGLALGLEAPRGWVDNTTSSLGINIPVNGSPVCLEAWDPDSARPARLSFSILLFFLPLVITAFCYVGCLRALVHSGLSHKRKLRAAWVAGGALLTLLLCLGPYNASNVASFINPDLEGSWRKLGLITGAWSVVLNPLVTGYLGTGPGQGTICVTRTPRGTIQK

Row | SMILES | EC50 [nM]
1 | CC#CC(CC(=O)O)c1ccc(OCC(COC)COc2ccc(C#N)c(Cl)c2)cc1 (stereo not shown) [Example 50, 3-{4-[3-(3-Chloro-4-cyanophenoxy)-2-methoxymethylpropoxy]phenyl}hex-4-ynoic acid] | 550
2 | CC#CC(CC(=O)O)c1ccc(OCC[C@@H](C)Oc2ccccc2C(F)(F)F)cc1 (stereo partly drawn) [Example 29, 3-{4-[(R)-3-(2-Trifluoromethylphenoxy)butoxy]phenyl}hex-4-ynoic acid] | 170
3 | CC#CC(CC(=O)O)c1ccc(OCC[C@H](C)Oc2ccccc2C(F)(F)F)cc1 (stereo partly drawn) [Example 30, 3-{4-[(S)-3-(2-Trifluoromethylphenoxy)butoxy]phenyl}hex-4-ynoic acid] | 140
4 | CC#CC(CC(=O)O)c1ccc(OCC[C@H](C)Oc2cccc(C)c2)cc1 (stereo partly drawn) [Example 28, 3-[4-((S)-3-m-Tolyloxybutoxy)phenyl]hex-4-ynoic acid] | 50
5 | CC#CC(CC(=O)O)c1ccc(OCCOc2ccccc2C)cc1 (stereo not shown) [Example 20, 3-{4-[2-o-Tolyloxyethoxy]phenyl}hex-4-ynoic acid] | 80
6 | CC#CC(CC(=O)O)c1ccc(OCCCOc2ccc(C(F)(F)F)cc2)cc1 (stereo not shown) [Example 11, 3-{4-[3-(4-Trifluoromethylphenoxy)propoxy]phenyl}hex-4-ynoic acid] | 80
7 | CC#CC(CC(=O)O)c1ccc(OCC(COc2cccc(C(C)(C)C)c2)c2ccccc2)cc1 (stereo not shown) [Example 47, 3-{4-[3-(3-tert-Butylphenoxy)-2-phenylpropoxy]phenyl}hex-4-ynoic acid] | 8740
8 | CC#CC(CC(=O)O)c1ccc(OCC[C@@H](C)Oc2ccc(C(F)(F)F)cc2Cl)cc1 (stereo partly drawn) [Example 31, 3-{4-[(R)-3-(2-Chloro-4-trifluoromethylphenoxy)butoxy]phenyl}hex-4-ynoic acid] | 640
9 | CC#CC(CC(=O)O)c1ccc(OCCOc2ccc(C(C)(C)C)cc2)cc1 (stereo not shown) [Example 16, 3-{4-[2-(4-tert-Butylphenoxy)ethoxy]phenyl}hex-4-ynoic acid] | 610
10 | CC#CC(CC(=O)O)c1ccc(OCC(CO)COc2ccc(C#N)c(Cl)c2)cc1 (stereo not shown) [Example 49, 3-{4-[3-(3-Chloro-4-cyanophenoxy)-2-hydroxymethylpropoxy]phenyl}hex-4-ynoic acid] | 150
11 | CC#CC(CC(=O)O)c1ccc(OCCCCOc2cccc(C(C)(C)C)c2)cc1 (stereo not shown) [Example 3, 3-{4-[4-(3-tert-Butylphenoxy)butoxy]phenyl}hex-4-ynoic acid] | 350
12 | CC#CC(CC(=O)O)c1ccc(OCC[C@@H](C)Oc2cccc(C)c2)cc1 (stereo partly drawn) [Example 27, 3-[4-((R)-3-m-Tolyloxybutoxy)phenyl]hex-4-ynoic acid] | 50
13 | CC#CC(CC(=O)O)c1ccc(OCC(CC)COc2ccc(C(F)(F)F)cc2)cc1 (stereo not shown) [Example 42, 3-{4-[2-(4-Trifluoromethylphenoxymethyl)butoxy]phenyl}hex-4-ynoic acid] | 1780
14 | CC#CC(CC(=O)O)c1ccc(OCCCOc2cccc(C(C)(C)C)c2)cc1 (stereo not shown) [Example 1, 3-{4-[3-(3-tert-Butylphenoxy)propoxy]phenyl}hex-4-ynoic acid] | 440
15 | CC#CC(CC(=O)O)c1ccc(OCC(COc2ccc(C(F)(F)F)cc2)c2ccccc2)cc1 (stereo not shown) [Example 46, 3-{4-[2-Phenyl-3-(4-trifluoromethylphenoxy)propoxy]phenyl}hex-4-ynoic acid] | 8490
16 | CC#CC(CC(=O)O)c1ccc(OCC(C)COc2ccc(Br)c(Cl)c2)cc1 (stereo not shown) [Example 40, 3-{4-[3-(4-Bromo-3-chlorophenoxy)-2-methylpropoxy]phenyl}hex-4-ynoic acid] | 830
17 | CC#CC(CC(=O)O)c1ccc(OCC(COc2ccc(C(F)(F)F)cc2Cl)OC)cc1 (stereo not shown) [Example 53, 3-{4-[3-(2-chloro-4-trifluoromethylphenoxy)-2-methoxypropoxy]phenyl}hex-4-ynoic acid] | 200
18 | CC#CC(CC(=O)O)c1ccc(OCC(CC)COc2cccc(C(C)(C)C)c2)cc1 (stereo not shown) [Example 43, 3-{4-[2-(3-tert-Butylphenoxymethyl)butoxy]phenyl}hex-4-ynoic acid] | 2030
19 | CC#CC(CC(=O)O)c1ccc(OCCC(C)Oc2cccc(C)c2)cc1 (stereo not shown) [Example 26, 3-[4-(3-m-Tolyloxybutoxy)phenyl]-hex-4-ynoic acid] | 50

Other lines, results leading:

Row | EC50 [nM] | SMILES
20 | 2400 | CC#CC(CC(=O)O)c1ccc(OCC(COCC2CC2)COc2ccc(C#N)c(Cl)c2)cc1 (stereo not shown) [Example 51, 3-{4-[3-(3-Chloro-4-cyanophenoxy)-2-cyclopropylmethoxymethylpropoxy]phenyl}hex-4-ynoic acid]
21 | 3200 | CC#CC(CC(=O)O)c1ccc(OCC(C)COc2cc(C(C)C)ccc2C)cc1 (stereo not shown) [Example 39, 3-{4-[3-(5-Isopropyl-2-methylphenoxy)-2-methylpropoxy]phenyl}hex-4-ynoic acid]
22 | 800 | CC#CC(CC(=O)O)c1ccc(OCC(C)(C)COc2ccc(C(F)(F)F)cc2)cc1 (stereo not shown) [Example 41, 3-{4-[2,2-dimethyl-3-(4-trifluoromethylphenoxy)propoxy]phenyl}hex-4-ynoic acid]
23 | 70 | CC#CC(CC(=O)O)c1ccc(OCCCOc2cccc(C)c2)cc1 (stereo not shown) [Example 12, 3-{4-[3-m-Tolyloxypropoxy]phenyl}hex-4-ynoic acid]
24 | 1610 | CC#CC(CC(=O)O)c1ccc(OC(C)CCOc2cccc(C(C)(C)C)c2)cc1 (stereo not shown) [Example 33, 3-{4-[3-(3-tert-Butylphenoxy)-1-methylpropoxy]phenyl}hex-4-ynoic acid]
25 | 50 | CC#CC(CC(=O)O)c1ccc(OCCOc2cccc(C)c2)cc1 (stereo not shown) [Example 14, 3-{4-[2-m-Tolyloxyethoxy]phenyl}hex-4-ynoic acid]
26 | 1990 | CC#CC(CC(=O)O)c1ccc(OC(C)CCOc2ccc(C(F)(F)F)cc2)cc1 (stereo not shown) [Example 25, 3-{4-[1-Methyl-3-(4-trifluoromethylphenoxy)propoxy]phenyl}hex-4-ynoic acid]
27 | 110 | CC#CC(CC(=O)O)c1ccc(OCCCOc2ccc(C(F)(F)F)cc2Cl)cc1 (stereo not shown) [Example 4, 3-{4-[3-(2-chloro-4-trifluoromethylphenoxy)propoxy]phenyl}hex-4-ynoic acid]
28 | 7500 | CC#CC(CC(=O)O)c1ccc(OCC(COc2ccc(C(F)(F)F)cc2Cl)OCc2ccccc2)cc1 (stereo not shown) [Example 48, 3-{4-[2-Benzyloxy-3-(2-chloro-4-trifluoromethylphenoxy)propoxy]phenyl}hex-4-ynoic acid]
29 | 610 | CC#CC(CC(=O)O)c1ccc(OCCCOc2cc(C(F)(F)F)ccc2Cl)cc1 (stereo not shown) [Example 9, 3-{4-[3-(2-Chloro-5-trifluoromethylphenoxy)propoxy]phenyl}hex-4-ynoic acid]
30 | 350 | CC#CC(CC(=O)O)c1ccc(OCCCOc2ccc(C(F)(F)F)nc2)cc1 (stereo not shown) [Example 8, 3-{4-[3-(6-Trifluoromethylpyridin-3-yloxy)propoxy]phenyl}hex-4-ynoic acid]
31 | 810 | CC#CC(CC(=O)O)c1ccc(OCC(C)COc2ccc(C(F)(F)F)cc2)cc1 (stereo not shown) [Example 34, 3-{4-[2-Methyl-3-(4-trifluoromethylphenoxy)propoxy]phenyl}hex-4-ynoic acid]
32 | 1090 | CC#CC(CC(=O)O)c1ccc(OCC(C)COc2cccc(C(C)(C)C)c2)cc1 (stereo not shown) [Example 35, 3-{4-[3-(3-tert-Butylphenoxy)-2-methylpropoxy]phenyl}hex-4-ynoic acid]
33 | 170 | CC#CC(CC(=O)O)c1ccc(OCCCOc2ccccc2C(F)(F)F)cc1 (stereo not shown) [Example 6, 3-{4-[3-(2-Trifluoromethylphenoxy)propoxy]phenyl}hex-4-ynoic acid]
34 | 550 | CC#CC(CC(=O)O)c1ccc(OCCOc2ccc(C(F)(F)F)nc2)cc1 (stereo not shown) [Example 10, 3-{4-[2-(6-Trifluoromethylpyridin-3-yloxy)ethoxy]phenyl}hex-4-ynoic acid]
35 | 990 | CC#CC(CC(=O)O)c1ccc(OCC(O)COc2ccc(C(F)(F)F)cc2Cl)cc1 (stereo not shown) [Example 52, 3-{4-[3-(2-Chloro-4-trifluoromethylphenoxy)-2-hydroxypropoxy]phenyl}hex-4-ynoic acid]
36 | 60 | CC#CC(CC(=O)O)c1ccc(OCCOc2cccc(C(F)(F)F)c2)cc1 (stereo not shown) [Example 15, 3-{4-[2-(3-Trifluoromethylphenoxy)ethoxy]phenyl}hex-4-ynoic acid]
37 | 1590 | CC#CC(CC(=O)O)c1ccc(OCC(C)COc2cc(C)ccc2C(C)C)cc1 (stereo not shown) [Example 36, 3-{4-[3-(2-Isopropyl-5-methylphenoxy)-2-methylpropoxy]phenyl}hex-4-ynoic acid]
38 | 40 | CC#CC(CC(=O)O)c1ccc(OCCOc2cccc(Cl)c2)cc1 (stereo not shown) [Example 13]
39 | 800 | CC#CC(CC(=O)O)c1ccc(OCCOc2ccccc2OC)cc1 (stereo not shown) [Example 21, 3-{4-[2-(2-Methoxyphenoxy)ethoxy]phenyl}hex-4-ynoic acid]
40 | 720 | CC#CC(CC(=O)O)c1ccc(OCCCOc2cccc(C(F)(F)F)c2Cl)cc1 (stereo not shown) [Example 7, 3-{4-[3-(2-Chloro-3-trifluoromethylphenoxy)propoxy]phenyl}hex-4-ynoic acid]
41 | 50 | CC#CC(CC(=O)O)c1ccc(OCCOc2cccc(C(C)(C)C)c2)cc1 (stereo not shown) [Example 2, 3-{4-[2-(3-tert-Butylphenoxy)ethoxy]phenyl}hex-4-ynoic acid]
42 | 460 | CC#CC(CC(=O)O)c1ccc(OCCOc2ccccc2F)cc1 (stereo not shown) [Example 18, 3-{4-[2-(2-Fluorophenoxy)ethoxy]phenyl}hex-4-ynoic acid]
43 | 50 | CC#CC(CC(=O)O)c1ccc(OCCOc2ccccc2C(F)(F)F)cc1 (stereo not shown) [Example 22, 3-{4-[2-(2-Trifluoromethylphenoxy)ethoxy]phenyl}hex-4-ynoic acid]
